Results as given in patent US4138485A, “Phenylalanine derivatives” (Kyowa Hakko Kogyo Kabushiki Kaisha, priority 1976, dated 1979).

Key:
[1] = Acute toxicity in mice; conditions: in vivo; mouse, oral administration, after one week; read-out: Acute Toxicity (LD50), A
Description: (§1) (1) Acute toxicity and tonic convulsion in hind paw:
(§2) The acute toxicity and tonic convulsion occured by stimulus by hand touch were determined in the following manner to give the results shown in Table 2.
(a) Acute toxicity in mice:
38 Groups, each consisting of 5 mice (male dd-strain, weight -- 18 to 24 g), were used for the test and control groups. The compounds shown in Table 2 were administered orally or intraperitoneally to the mice. After one week, the survival ratio was measured.

[2] = Acute toxicity in rats; conditions: in vivo; rat, oral administration, after one week; read-out: Acute Toxicity (LD50), C
Description: as §1, §2
(b) Acute toxicity in rats:
28 Groups, each consisting of 5 rats (male Wistar strain, weight -- 200 g), were used for the test and control groups. The compounds shown in Table 2 were orally administered to the rats. After one week, the survival ratio was measured.

[3] = system: Mouse; assay: Tonic convulsion of hind paw of mice (stimulus by hand touch); assay type: in vivo, mice (male dd-strain); conditions: oral, 30 to 360 minutes
Description: as §1, §2
(c) Tonic convulsion of hind paw of mice:
38 Groups, each consisting of 5 mice (male dd-strain, weight -- 18 to 24 g), were used for the test and control groups. The compounds shown in Table 2 were orally administered to the mice. At 30, 60, 120, 180 and 360 minutes after the administration, stimulus by hand touch was given to the mice and the tonic convulsion was observed.

[4] = system: hyperlipemia induced by Triton; assay: Cholesterol-lowering activity on hyperlipemia induced by Triton in mice; assay type: in vivo, mice (male dd-strain); conditions: Mus musculus, po, 43 h, read-out: Ratio of the reduction of cholesterol
Description: (2) Cholesterol-Lowering activity on hyperlipemia induced by Triton in mice:
38 Groups, each consisting of 9 mice (male dd-strain, weight -- 19 to 21 g), were used for the test and control groups. […] Immediately after the administration and also after 20 hours from the administration of Triton, the mice were orally administered with 100 mg/kg of the compound shown in Table 3. 43 hours after the administration of Triton, the blood samples were collected by decapitation and then the corpuscle was removed by centrifugation. Cholesterol in the serum was determined by Zurkowski's method modified by Shibata (color of the test solution was developed by using sulfoalicyclic acid, acetic acid and sulfuric acid and the optical density of the solution was determined at 620 mμ.

[5] = system: Cholesterol in the serum; assay: Cholesterol-lowering activity on normal rats of Wistar strain (serum cholesterol, liver weight); assay type: in vivo, rats (male Wistar strain); conditions: 0.3% in diet; for B - Ratio of decrease of liver weight: continuous administration for 4 days; for C - Ratio of decrease of cholesterol / D - Ratio of increase of liver weight: continuous administration for 14 days
Description: (3) Cholesteral-lowering activity on normal rats of Wistar strain:
(i) 22 Groups, each consisting of 5 rats (male Wistar strain, weight -- 150 to 180 g) were used for the test and control groups. After this, the blood samples were collected by decapitation and then the corpuscle was removed by centrifugation. Cholesterol in the serum was determined by Zurkowski's method modified by Shibata and also the liver was excised and weighed. The results are shown in Table 4 wherein the ratio of 100% denotes the amount of chloresterol and the weight of the liver of normal rats fed with powdery diet without the addition of the compound.

SMILES	LD50 at 168 h [1]	LD50 at 168 h [2]	Tonic convulsion ([3]; D = 1000 mg/kg)	inhibition in vivo at 100 mg/kg [4]	B - Ratio of decrease of liver weight [5]	Tonic convulsion ([3]; D = 500 mg/kg)	C - Ratio of decrease of cholesterol [5]	D - Ratio of increase of liver weight [5]
O=C(NC(Cc1ccccc1)C(=O)O)SCc1ccccc1 (racemic) [Compound 17, N-benzylthiocarbonyl-D,L-phenylalanine]	> 1000 mg/kg	> 100 mg/kg	+	95%	35.2%	–	–	–
COC(=O)[C@H](Cc1ccccc1)NC(=O)SCc1ccc(F)cc1 [Compound 12, N-(4-fluorobenzylthiocarbonyl)-L-phenylalanine methylester]	> 1000 mg/kg	> 100 mg/kg	+	76%	45.9%	–	–	–
O=C(N[C@@H](Cc1ccccc1)C(=O)O)SCc1ccccc1 [Compound 16, N-benzylthiocarbonyl-L-phenylalanine]	> 1000 mg/kg	> 200 mg/kg	–	86%	–	+	9.2%	79%
COC(=O)[C@H](Cc1ccccc1)NC(=O)SCc1ccccc1 [Compound 18, N-benzylthiocarbonyl-L-phenylalanine methylester]	> 1000 mg/kg	> 200 mg/kg	–	80%	39%	+	3.0%	92%
Cc1ccccc1CSC(=O)N[C@@H](Cc1ccccc1)C(=O)O [Compound 20, N-(2-methylbenzylthiocarbonyl)-L-phenylalanine]	> 1000 mg/kg	–	+	47%	–	–	–	–
COC(=O)[C@H](Cc1ccccc1)NC(=O)SCc1ccccc1C [Compound 21, N-(2-methylbenzylthiocarbonyl)-L-phenylalanine methylester]	> 1000 mg/kg	–	+	43%	–	–	–	–
Cc1cccc(CSC(=O)N[C@@H](Cc2ccccc2)C(=O)O)c1 [Compound 22, N-(3-methylbenzylthiocarbonyl)-L-phenylalanine]	> 1000 mg/kg	–	+	46%	–	–	–	–
